Assay results from US7786107B2, “Modulators of muscarinic receptors” (Vertex Pharmaceuticals Incorporated, priority 2006, dated 2010).

Key:
M1 muscarinic receptor = target: T1, M1 muscarinic receptor (Homo sapiens, UniProt P11229); assay: Functional mobilization of intracellular calcium (FLIPR) in CHO cells expressing M1; type: cell-based; details: for EC50: CHO cells expressing M1, calcium mobilization; for Emax: CHO, 100% efficacy is the maximum response obtained with the Carbachol control
T1 construct: expressed in transfected cells; host or cells: CHO
T1 sequence (P11229 1-460): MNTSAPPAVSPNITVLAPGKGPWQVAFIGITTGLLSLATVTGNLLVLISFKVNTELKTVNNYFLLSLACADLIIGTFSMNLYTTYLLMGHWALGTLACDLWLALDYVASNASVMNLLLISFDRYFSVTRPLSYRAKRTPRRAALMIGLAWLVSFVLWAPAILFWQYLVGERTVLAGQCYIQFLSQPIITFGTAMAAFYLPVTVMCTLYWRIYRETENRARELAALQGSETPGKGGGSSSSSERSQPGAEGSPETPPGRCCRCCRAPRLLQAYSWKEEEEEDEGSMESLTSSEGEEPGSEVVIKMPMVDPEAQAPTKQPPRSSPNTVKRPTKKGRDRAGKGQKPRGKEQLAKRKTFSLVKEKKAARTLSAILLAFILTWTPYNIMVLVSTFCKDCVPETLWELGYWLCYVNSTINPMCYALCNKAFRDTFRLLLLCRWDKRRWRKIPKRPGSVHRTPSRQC
Procedure: (§1) Functional Mobilization of Intracellular Calcium to Determine Muscarinic Receptor Activity:
(§2) CHO cells expressing muscarinic receptors (M1 to M5) are grown as monolayers in tissue culture flasks at 37° C. in a humidified atmosphere containing 5% CO2 and passaged every 3-5 days. The growth media is Dulbecco's modified eagles medium (DMEM, Gibco Cat#12430-054), containing 25 mM Hepes and supplemented with Fetal Bovine Serum (Hyclone, Cat#SH30071.03), 0.1 mM of MEM non-essential amino acids (GIBCO, Cat#11140-050), 1 mM MEM Sodium Pyruvate (GIBCO Cat#11360-070) and 100 units/ml of Penicillin G and 100 μg/ml of Streptomycin (GIBCO Cat#15140-122). The recombinant muscarinic receptor cell lines are grown under antibiotic pressure with media containing 25 μg/ml zeocin and 500 μg/ml G418 (MI-CHO), 4 μg/ml puromycin, 50 μg/ml zeocin and 2.5 μg/ml blasticidin (M2 and M4-CHO) or 50 μg/ml zeocin and 4 μg/ml puromycin (M3 and M5-CHO).
(§3) Cells are harvested at 80-90% confluence using Versene (GIBCO Cat#15040-066), collected by centrifugation and seeded 18-24 hours prior to running the calcium assay at a density of 5,000-10,000 cells/well in […], clear-bottomed 384-well plates (BD Biocoat, poly-D-lysine, Cat#356663). The day of the experiment, the cells are washed with a plate washer (Bioteck Instruments, ELX 405) using bath 1 buffer (140-mM NaCl, 4.5-mM KCl, 2-mM CaCl2, 1-mM MgCl2, 10-mM Hepes-Na, 10-mM Glucose, pH 7.4, with NaOH) containing 1 mM Probenecid. Next, the calcium dye Fluo-3 (25 μl well of Fluo-3 AM at 4 μM, Molecular Probes F-1241, in Bath 1 buffer containing 1 mM Probenecid) is added to the 25 μl of Bath 1 remaining in each well after the plate wash and the dye is loaded at 37° C. in the tissue culture incubator for 60-90 min. The fluorescent dye is removed using the plate washer with Bath 1 containing 1 mM Probenecid, leaving 25 μl/well of this solution after the wash. Alternatively, cells can be loaded with the calcium indicator from Molecular Devices (Calcium 3 Assay Reagents, Cat #R7181) adding 5 μl of a 5× solution dye in Bath 1 containing 1 mM Probenecid (10 ml per dye flask cat#R7182 to generate a solution 20×) to 20 μl of the same buffer. After loading for 60 min, the experiment can be run without having to remove the dye.
(§4) Compounds are prepared at a 2× fold concentration in a 96-well plate (round bottom, Costar Corning cat#3656), by reconstituting the pre-spotted compounds in bath 1 containing 1 mM probenecid. The final concentration DMSO is 0.5%, and the amount of DMSO is normalized across the assay plate. To determine an agonist action of the compounds on muscarinic receptors, the reconstituted compounds are added (25 μl compound/well) to the cell assay plate (containing 25 μl/well) using the multi-channel robotic system of the FLIPR 3 Instrument (Molecular Devices, Sunnyvale, Calif.). To determine a functional inhibitory action of the compounds on muscarinic receptors, the reconstituted compounds are added (25 μl compound/well) to the assay plate and pre-incubated for 15 min prior to adding 25 μl of Carbachol at 3× the EC80 for each muscarinic subtype. Alternatively, the compounds can be co-applied simultaneously with the agonist. In both assay modes, the fluorescence is recorded for 60 sec (excitation wavelength is […] and emission wavelength 540 nm) using the FLIPR 3 instrument.
(§5) The potency, efficacy and selectivity of the muscarinic compounds were evaluated by screening the compound activity across the whole family (M1 to M5 cells). Compounds were also screened for activity on other proteins such as other GPCRs and ion channels to determine selectivity on M4 receptors.
(§6) Examples of activities and efficacies of the muscarinic compounds of formulae (I, I-A, and I-B) on modulating M1 and M4 receptors are shown below in Table 4. […]

M4 muscarinic receptor = target: T2, M4 muscarinic receptor (Homo sapiens, UniProt P08173); assay: Functional mobilization of intracellular calcium (FLIPR) in CHO cells expressing M4; type: cell-based; details: for EC50: CHO cells expressing M4, calcium mobilization; for Emax: CHO, 100% efficacy is the maximum response obtained with the Carbachol control
T2 construct: expressed in transfected cells; host or cells: CHO
T2 sequence (P08173 1-479): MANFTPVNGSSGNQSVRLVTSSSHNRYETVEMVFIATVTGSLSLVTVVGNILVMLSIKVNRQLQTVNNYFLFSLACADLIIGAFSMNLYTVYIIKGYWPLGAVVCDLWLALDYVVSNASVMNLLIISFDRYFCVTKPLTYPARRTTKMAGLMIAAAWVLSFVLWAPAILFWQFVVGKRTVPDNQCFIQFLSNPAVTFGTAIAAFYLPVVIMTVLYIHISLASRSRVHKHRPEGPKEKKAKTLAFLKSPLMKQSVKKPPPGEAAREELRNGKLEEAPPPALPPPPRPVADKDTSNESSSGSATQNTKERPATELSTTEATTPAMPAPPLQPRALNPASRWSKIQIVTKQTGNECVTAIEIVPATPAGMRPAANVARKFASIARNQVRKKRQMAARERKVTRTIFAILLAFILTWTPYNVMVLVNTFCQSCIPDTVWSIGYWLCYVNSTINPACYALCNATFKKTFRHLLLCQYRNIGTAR
Procedure: as §1, §2, §3, §4, §5, §6

| Compound | EC50 (M1 muscarinic receptor) [nM] | Emax (M1 muscarinic receptor) [%] | EC50 (M4 muscarinic receptor) [nM] | Emax (M4 muscarinic receptor) [%] |
| --- | --- | --- | --- | --- |
| CN(C)C(=O)N1CCCC2(CCN(C3CC4CCC(C4)C3)CC2)c2ccccc21 (stereo not shown) [Compound 25] | > 10000 | < 25 | < 2000 | 25 to 100 |
| CN(C)C(=O)N1CCCC2(CCN(CC3CC4C=CC3C4)CC2)c2ccccc21 (stereo not shown) [Compound 15] | > 10000 | < 25 | < 2000 | 25 to 100 |
| NC(=O)N1CCCC2(CCN(CC3CC4C=CC3C4)CC2)c2ccccc21 (stereo not shown) [Compound 2] | 2000 to 10000 | < 25 | < 2000 | 25 to 100 |
| O=C1CCC2(CCN(C3C[C@@H]4CC[C@@H]3C4)CC2)c2ccccc2N1 (stereo partly shown) [Compound 1] | < 2000 | > 100 | < 2000 | 25 to 100 |
| CCOC(=O)N1C2CCC1CC(N1CCC3(CCCN(C(C)=O)c4ccccc43)CC1)C2 (stereo not shown) [Compound 28] | < 2000 | 25 to 100 | < 2000 | 25 to 100 |
| NC(=O)N1CCCC2(CCN(C3C[C@@H]4CC[C@@H]3C4)CC2)c2ccccc21 (stereo partly shown) [Compound 26] | > 10000 | < 25 | > 10000 | < 25 |
| CC(=O)N1CCCC2(CCN(CC3CCCCC3)CC2)c2ccccc21 [Compound 7] | > 10000 | < 25 | 2000 to 10000 | < 25 |
